Results on 25 molecules are retold here after publication PMC7904559, “QSAR and molecular docking for the search of AOX inhibitors: a rational drug discovery approach” (Journal of Computer-Aided Molecular Design, 2020).

Series [1] deals with alternative oxidase of Trypanosoma brucei (TAO). Conditions: cited from earlier work; for pIC50 Exp.: training set, calculated as -log IC50.
Series [2] has as its target trypanosome alternative oxidase (TAO) (Trypanosoma brucei brucei, UniProt Q26710). As to the kind of experiment: biochemical.
The next series deals with cytochrome bc1 complex. Conditions: cited from earlier work.
Details of series [3]: method as in PMID 30693533. Conditions: cited from earlier work.
In the next series the test system is T. vivax. Conditions: T. vivax-infected mouse; single intramuscular dose of 50 mg/kg or 6 mg/kg on 4 consecutive days; cited from earlier work.
The mark [4] stands for this setting: read-out: IC50 (50% inhibitory concentration), against TAO.
Where [5] appears, read: wild type TAO, Table 2, read-out: IC50.
The mark [6] stands for this setting: pIC50 Exp, external validation set, -log IC50 of values measured by respirometry.
Where [7] appears, read: IC50, recombinant AOX expressed in E. coli membranes, mean ± SD of n = 3 isolations, 37 °C, pH 7.4, 1.25 mM NADH, 1 mM KCN.

Read-outs that look alike come from different tables or passages of the source.

Sequence of trypanosome alternative oxidase (TAO) (Q26710 whole entry): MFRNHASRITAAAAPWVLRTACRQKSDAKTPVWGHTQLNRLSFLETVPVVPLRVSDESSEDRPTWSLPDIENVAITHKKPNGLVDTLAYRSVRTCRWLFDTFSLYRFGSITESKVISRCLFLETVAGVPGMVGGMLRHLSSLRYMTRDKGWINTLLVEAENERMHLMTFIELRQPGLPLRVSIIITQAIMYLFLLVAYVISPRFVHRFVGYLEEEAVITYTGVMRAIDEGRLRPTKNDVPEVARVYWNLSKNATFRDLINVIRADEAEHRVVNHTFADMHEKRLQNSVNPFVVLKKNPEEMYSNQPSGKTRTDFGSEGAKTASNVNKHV

For `C/C(=C\Cc1c(O)c(Cl)c(C)c(C=O)c1O)CC/C=C(\C)COC(=O)C(C)(C)C` [Compound 1], the IC50 in series [1] (setting [4]) was 0.4 nM. Further, the “pIC50 Exp.” value in series [1] is listed as 9.398.

As for `CCC/C=C/c1c(O)c(Cl)c(C)c(C=O)c1O` [Compound 7b], in series [1] (setting [4]), the IC50 is 3.8 nM. Moreover, the “pIC50 Exp.” value in series [1] was 8.420. As for `CC(C)=CCC/C(C)=C/Cc1c(O)ccc(C=O)c1O` [Compound 28], the IC50 in series [1] (setting [4]) was 38 nM. In series [1], the “pIC50 Exp.” value is 7.420.

Turning to `COc1c(Cl)c(C)c(C=O)c(O)c1C/C=C(\C)CC/C=C(\C)C1CC(=O)C(C)(C)O1` (stereo not shown) [Compound 29], in series [1] (setting [4]), the IC50 is 4 nM. The “pIC50 Exp.” value in series [1] is recorded as 8.398. For `C/C(=C\CC/C(C)=C/Cc1c(O)c(Cl)c(C)c(C=O)c1O)CO` [Compound 2], in series [1] (setting [4]), the IC50 was 1.2 nM. Further, the “pIC50 Exp.” value in series [1] is given as 8.921. For the molecule `Cc1c(Cl)c(O)c(CCCCCCCCO)c(O)c1C=O` [Compound 11], the IC50 in series [1] (setting [4]) was 6 nM. Moreover, the “pIC50 Exp.” value in series [1] is given as 8.222. For the molecule `CC(C)=CCC/C(C)=C/Cc1c(O)cc(C)c(C=O)c1O` [Compound 27], the IC50 in series [1] (setting [4]) was 0.5 nM. Besides, in series [1], the “pIC50 Exp.” value is 9.301. On to `Cc1c(Cl)c(O)c(CCCCCCCC(=O)O)c(O)c1C=O` [Compound 12], for which the IC50 in series [1] (setting [4]) is 40 nM. Further, the “pIC50 Exp.” value in series [1] is reported as 7.398. As to `CC(C)=CCC/C(C)=C/Cc1c(O)c(Cl)c(C)c(C=O)c1O` [Colletochlorin B], the IC50 in series [1] (setting [5]) is 0.2 nM. For the molecule `CCCCCCCCc1c(O)c(Cl)c(C)c([N+](=O)[O-])c1O` [Compound 20], in series [1] (setting [4]), the IC50 is 0.45 nM. For the same molecule, the “pIC50 Exp.” value in series [1] is 9.347. On to `C/C(=C\Cc1c(O)c(Cl)c(C)c(/C=N\O)c1O)CC/C=C(\C)C1CC(=O)C(C)(C)O1` (stereo not shown) [Compound 17], for which the IC50 in series [1] (setting [4]) was 28 nM. Moreover, in series [1], the “pIC50 Exp.” value is reported as 7.553. As for `COC(=O)c1c(C)c(Cl)c(O)c(C/C=C(\C)CCC=C(C)C)c1O` [Compound 18], in series [1] (setting [4]), the IC50 was 45 nM. The “pIC50 Exp.” value in series [1] was 7.347.

For `CC(=O)c1c(C)c(Cl)c(O)c(C/C=C(\C)CCC=C(C)C)c1O` [Compound 16], the “pIC50 Exp.” value in series [1] is recorded as 9.824. Besides, in series [1] (setting [5]), the IC50 is 0.15 nM. `CC(C)=CCc1c(O)c(Cl)c(C)c(C=O)c1O` [Colletochlorin D] had an IC50 in series [2] (setting [6]) of 33 nM. Consider `C/C(=C\Cc1c(O)c(Cl)cc(C=O)c1O)CC/C=C(\C)C1CC(=O)C(C)(C)O1` (stereo not shown) [Compound 25], for which, in series [1] (setting [4]), the IC50 is 0.45 nM. Moreover, in series [1], the “pIC50 Exp.” value is 9.347. For the molecule `CC(C)=CCC/C(C)=C/Cc1c(O)c(Cl)cc(C=O)c1O` [Compound 26], the IC50 in series [1] (setting [4]) is 0.23 nM. The “pIC50 Exp.” value in series [1] is reported as 9.638.

The molecule `CCCCCCCCOC(=O)c1cc(O)c(O)c(O)c1` [Octyl gallate] showed an IC50 in series [2] (setting [6]) of 230 nM. For `CC(/C=C/[C@@]1(C)[C@H](C)CCC(=O)[C@@H]1C)=C\Cc1c(O)c(Cl)c(C)c(C=O)c1O` [Ascochlorin], the “inhibition of cytochrome bc1 complex” value in the series on cytochrome bc1 complex was “potent inhibitor”. Also, the IC50 in series [2] (setting [7]) was around 7 nM; in series [2] (setting [6]), 7.4 nM. Regarding `CC(C)=CCC/C(C)=C/CC/C(C)=C/Cc1c(O)c2ccccc2oc1=O` [Ferulenol], the IC50 in series [2] (setting [6]) is 53.1 nM. With `CC(=O)c1c(C)c(Cl)c(O)c(C/C=C(\C)CC/C=C(\C)C2CC(=O)C(C)(C)O2)c1O` (stereo not shown) [Compound 14], the IC50 in series [1] (setting [4]) is 2.5 nM. Also, the “pIC50 Exp.” value in series [1] is given as 8.602. As for `C/C(=C\Cc1c(O)c(Cl)c(C)c(C=O)c1O)CC/C=C(\C)[C@@H]1CC(=O)C(C)(C)O1` [Ascofuranone], the “inhibition of mammalian cytochrome bc1 complex” value in the series on cytochrome bc1 complex (mammalian, concluded from survival of mice following AF treatment) is given as “not an effective inhibitor”. For the same molecule, in series [3], the blood clearance result is recorded as “rapid” and the oral bioavailability entry was “low”. Besides, in the series with T. vivax, the treatment outcome is reported as “successful treatment”. For `C/C=C/c1c(O)c(Cl)c(C)c(C=O)c1O` [Compound 7a], in series [1], the “pIC50 Exp.” value is 7.000.

Take `CCCOC(=O)c1cc(O)c(O)c(O)c1` [Propyl gallate]: the IC50 in series [1] (setting [5]) is 200 nM; in series [2] (setting [7]) it was 1400 nM; in series [2] (external validation set, -log IC50 of values measured by respirometry, read-out: pIC50 Exp (converted)) it was 1400 nM. As for `CC(=O)c1c(C)c(Cl)c(O)c(C/C=C(\C)CC/C=C(\C)COC(=O)C(C)(C)C)c1O` [Compound 15], in series [1] (setting [4]), the IC50 is 0.7 nM. Moreover, the “pIC50 Exp.” value in series [1] is 9.155. For the molecule `CC(=O)OC(C)/C(C)=C/CC/C(C)=C/Cc1c(O)c(Cl)c(C)c(C=O)c1O` (stereo not shown) [Compound 3], the IC50 in series [1] (setting [4]) is 1.4 nM. Further, the “pIC50 Exp.” value in series [1] is given as 8.854.
